Results published in ChEMBL document CHEMBL3217714, “Synthesis and anti HSV-1 evaluation of novel indole-3,4-diones” (Medchemcomm, 2011).
Calls of active or inactive are those of the source. The rule behind the calls is not given here.

What was measured:
Human alphaherpesvirus 1 [1] = test: Antiviral activity against HSV-1 infected in African green monkey Vero cells at 10 to 100 uM by plaque reduction assay; type: functional, organism-based
Vero [2] = test: Cytotoxicity against African green monkey Vero cells at 40 to 100 uM compound in water by trypan blue exclusion assay; type: cell-based; settings: chlorocebus sabaeus
Vero [3] = test: Cytotoxicity against African green monkey Vero cells at 1 to 100 uM compound in DMSO by trypan blue exclusion assay; type: cell-based; settings: chlorocebus sabaeus
Human alphaherpesvirus 1 [4] = test: Antiviral activity against HSV-1 infected in African green monkey Vero cells assessed as reduction in plaque formation at 10 to 100 uM by inverted microscopy; type: functional, organism-based

CC1N=C2CCCC(=O)C2C1=O (stereo not given)
inhibition (Human alphaherpesvirus 1 [1]): Dose-dependent effect | Activity (Vero [2]): Non-toxic | Activity (Vero [3]): Non-toxic

CC1CC(=O)C2C(=O)C(C)N=C2C1 (stereo not given)
inhibition (Human alphaherpesvirus 1 [1]): Dose-dependent effect | Activity (Vero [2]): Non-toxic | Activity (Vero [3]): Non-toxic | Activity (Human alphaherpesvirus 1 [4]): Active

CC1N=C2CC(C)(C)CC(=O)C2C1=O (stereo not given)
inhibition (Human alphaherpesvirus 1 [1]): Dose-dependent effect | Activity (Vero [2]): Non-toxic | Activity (Vero [3]): Non-toxic
